Assay results as given in patent publication US11096923B2, “Pharmaceutical composition containing polymyxin B/trimethoprim based therapeutics” (University of Rochester, priority 2016, dated 2021).
Like-named read-outs stand apart in the source and are kept apart here.

Tests used:
P. aeruginosa = test: MIC of clinical P. aeruginosa ocular isolates (antibiotic susceptibility profiles); type: cell-based, Pseudomonas aeruginosa; details: for MIC: Pseudomonas aeruginosa, read-out: Minimum Inhibitory Concentration
Text: A series of genotyping and biological assays were used as a preliminary means to evaluate the clonality of clinical P. aeruginosa isolates collected, as follows. Genomic DNA was purified from each isolate using Qiagen DNeasy kits (Hilden, Germany) and used as a template for polymerase chain reactions to detect the presence of the virulence factors exoS, exoY, exoU, exoT, and perV using previously published primers (Table 1). See Allewelt M, Coleman F T, Grout M, Priebe G P, Pier G B. Acquisition of expression of the Pseudomonas aeruginosa ExoU cytotoxin leads to increased bacterial virulence in a murine model of acute pneumonia and systemic spread. Infection and immunity 2000; 68:3998-4004, Lomholt J A, Poulsen K, Kilian M. Epidemic population structure of Pseudomonas aeruginosa: evidence for a clone that is pathogenic to the eye and that has a distinct combination of virulence factors. Infection and immunity 2001; 69, and Ledbetter E C, Mun J J, Kowbel D, Fleiszig S M. Pathogenic phenotype and genotype of Pseudomonas aeruginosa isolates from spontaneous canine ocular infections. Investigative ophthalmology & visual science 2009; 50. […] See Institute C. Performance Standards for Antimicrobial Susceptibility Testing: Twenty-fifth Informational Supplement. Each isolate's ability to form biofilms was quantified. To do so, wells of a polystyrene plate containing 72-hour established biofilms were washed with 0.8% NaCl to remove non adherent cells and stained with crystal violet. To quantify biofilm staining, plates were washed 3 times with H2O, stain was suspended in 30% glacial acetic acid and the optical density (OD600nm) of each well was determined using an automated plate reader, as previously described. See Jacobs A C, Blanchard C E, Catherman S C, Dunman P M, Murata Y. An ribonuclease T2 family protein modulates Acinetobacter baumannii abiotic surface colonization. PloS one 2014; 9.

P. aeruginosa PAO1 = test: Selleck library screen in presence of sub-inhibitory polymyxin B/trimethoprim; type: cell-based, Pseudomonas aeruginosa; parameters: key: Growth (+); no growth (−); details: for P. aeruginosa growth, 5 μM: drug 5 μM in presence of 0.2 μg ml^−1 polymyxin B/trimethoprim; for P. aeruginosa growth, 50 μM: drug 50 μM in presence of 0.2 μg ml^−1 polymyxin B/trimethoprim
Protocol: (§1) To identify agents that potentiate the antimicrobial activity of polymyxin B/trimethoprim we first determined the highest concentration of the polymyxin B/trimethoprim combination that allowed growth of P. aeruginosa strain PAO1 and S. aureus strain UAMS-1.
For Selleck library screening, individual wells of 96-well microtiter plates containing 88 μl of fresh media were inoculated with approximately 10^5 CFUs of P. aeruginosa strain PAO1 or S. aureus UAMS-1. Next, 2 μl of polymyxin B/trimethoprim was added to a final concentration of 0.2 μg ml^−1 or 1.25 μg ml^−1 for PA01 and UAMS-1, respectively. Library members were then added at either 5 μM or 50 μM final concentration. Plates were incubated at 37° C. for 16 hours and hits were identified as wells with no visible growth. […]

S. aureus UAMS-1 = test: as above; type: cell-based, Staphylococcus aureus; parameters: key: Growth (+); no growth (−); details: for S. aureus growth, 5 μM: drug 5 μM in presence of 1.2 μg ml^−1 polymyxin B/trimethoprim; for S. aureus growth, 50 μM: drug 50 μM in presence of 1.2 μg ml^−1 polymyxin B/trimethoprim
Protocol: as §1
For Selleck library screening, individual wells of 96-well microtiter plates containing 88 μl of fresh media were inoculated with approximately 10^5 CFUs of P. aeruginosa strain PAO1 or S. aureus UAMS-1. Next, 2 μl of polymyxin B/trimethoprim was added to a final concentration of 0.2 μg ml^−1 or 1.25 μg ml^−1 for PA01 and UAMS-1, respectively. Library members were then added at either 5 μM or 50 μM final concentration. Plates were incubated at 37° C. for 16 hours and hits were identified as wells with no visible growth.
To do so, 10^5 CFUs of S. aureus strain UAMS-1 were inoculated in individual wells of a microtiter plate supplemented with 1.2 μg ml^−1 of polymyxin B/trimethoprim, (0.25×MIC). Library members were added at low (5 μM) or high (50 μM) concentrations and then scored for agents that inhibited growth following overnight incubation. Such agents were expected to represent compounds that display antimicrobial activity on their own and/or that potentiate the antimicrobial activity of polymyxin B/trimethoprim.

P. aeruginosa biofilm = test system: P. aeruginosa biofilm; parameters: key: Killing (+) of established biofilms; details: established biofilms; adenylate kinase reporter; Blanchard et al., 2016; cited from earlier work
[1] = P. aeruginosa ocular isolate RW01 (cornea)
[2] = P. aeruginosa ocular isolate RW02 (cornea)
[3] = P. aeruginosa ocular isolate RW03 (cornea)
[4] = P. aeruginosa ocular isolate RW04 (conjunctiva)
[5] = P. aeruginosa ocular isolate RW05 (cornea)
[6] = P. aeruginosa ocular isolate RW06 (cornea)
[7] = P. aeruginosa ocular isolate RW07 (cornea)

Row | Compound | P. aeruginosa growth, 5 μM (P. aeruginosa PAO1) | P. aeruginosa growth, 50 μM (P. aeruginosa PAO1) | S. aureus growth, 5 μM (S. aureus UAMS-1) | S. aureus growth, 50 μM (S. aureus UAMS-1) | P. aeruginosa biofilm AK Signal (P. aeruginosa biofilm) | further results
1 | CC1(C)S[C@@H]2[C@H](NC(=O)[C@H](N)c3ccccc3)C(=O)N2[C@H]1C(=O)O [Ampicillin, ampicillin] |  |  |  |  |  | MIC (P. aeruginosa; [1]): 50 µg/mL; MIC (P. aeruginosa; [2]): 50 µg/mL; MIC (P. aeruginosa; [3]): 50 µg/mL; MIC (P. aeruginosa; [4]): 50 µg/mL; MIC (P. aeruginosa; [5]): 100 µg/mL; MIC (P. aeruginosa; [6]): 100 µg/mL; MIC (P. aeruginosa; [7]): 50 µg/mL
2 | CO/N=C(\C(=O)N[C@@H]1C(=O)N2C(C(=O)O)=C(CSc3nc(=O)c(=O)[nH]n3C)CS[C@H]12)c1csc(N)n1 [Ceftriaxone, ceftriaxone] |  |  |  |  |  | MIC (P. aeruginosa; [1]): 13 µg/mL; MIC (P. aeruginosa; [2]): 26 µg/mL; MIC (P. aeruginosa; [3]): 26 µg/mL; MIC (P. aeruginosa; [4]): 26 µg/mL; MIC (P. aeruginosa; [5]): 13 µg/mL; MIC (P. aeruginosa; [6]): 52 µg/mL; MIC (P. aeruginosa; [7]): 26 µg/mL
3 | NC1CCN(c2c(F)cc3c(=O)c(C(=O)O)cn(C4CC4)c3c2Cl)C1 (stereo not shown) [Clinafloxacin, clinafloxacin] | − | − | − | − | + | 
4 | CN1C[C@@H]2C[C@H]1CN2c1cc2c(cc1F)c(=O)c(C(=O)O)cn2C1CC1 [Danofloxacin, danofloxacin] | − | − | − | − | + | 
5 | CCN1CCN(c2cc3c(cc2F)c(=O)c(C(=O)O)cn3C2CC2)CC1 [Enrofloxacin, enrofloxacin] | − | − | − | − | + | 
6 | C[C@H]1COc2c(N3CCN(C)CC3)c(F)cc3c(=O)c(C(=O)O)cn1c23 [Levofloxacin, levofloxacin] | − | − | + | − |  | 
7 | CCn1cc(C(=O)O)c(=O)c2cc(F)c(N3CCNC(C)C3)c(F)c21 (stereo not shown) [Lomefloxacin, lomefloxacin] | − | − | − | − | + | 
8 | CC1CCc2c(N3CCC(O)CC3)c(F)cc3c(=O)c(C(=O)O)cn1c23 (stereo not shown) [Nadifloxacin, nadifloxacin] | − | − | − | − | + | 
9 | CCn1cc(C(=O)O)c(=O)c2cc(F)c(N3CCN(C)CC3)cc21 [Pefloxacin, pefloxacin] | − | − | − | − | + | 
10 | CO[C@H]1/C=C/O[C@@]2(C)Oc3c(C)c(O)c4c(c3C2=O)C2=NC3(CCN(CC(C)C)CC3)NC2=C(NC(=O)/C(C)=C\C=C\[C@H](C)[C@H](O)[C@@H](C)[C@@H](O)[C@@H](C)[C@H](OC(C)=O)[C@@H]1C)C4=O [Rifabutin, rifabutin] | − | − | − | − | + | 
11 | gentamycin |  |  |  |  |  | Minimum Inhibitory Concentration (P. aeruginosa; [1]): 0.24 µg/mL; Minimum Inhibitory Concentration (P. aeruginosa; [2]): 0.24 µg/mL; Minimum Inhibitory Concentration (P. aeruginosa; [3]): 0.12 µg/mL; Minimum Inhibitory Concentration (P. aeruginosa; [4]): 0.48 µg/mL; Minimum Inhibitory Concentration (P. aeruginosa; [5]): 0.48 µg/mL; Minimum Inhibitory Concentration (P. aeruginosa; [6]): 0.48 µg/mL; Minimum Inhibitory Concentration (P. aeruginosa; [7]): 0.24 µg/mL
12 | neomycin |  |  |  |  |  | Minimum Inhibitory Concentration (P. aeruginosa; [1]): 9.8 µg/mL; Minimum Inhibitory Concentration (P. aeruginosa; [2]): 9.8 µg/mL; Minimum Inhibitory Concentration (P. aeruginosa; [3]): 9.8 µg/mL; Minimum Inhibitory Concentration (P. aeruginosa; [4]): 19.6 µg/mL; Minimum Inhibitory Concentration (P. aeruginosa; [5]): 1 µg/mL; Minimum Inhibitory Concentration (P. aeruginosa; [6]): 9.8 µg/mL; Minimum Inhibitory Concentration (P. aeruginosa; [7]): 1 µg/mL
